# Literature values in patent US10010502B2, “Device that delivers a sustained low-dose of a myopia-suppressing drug, while preserving pupillary function and accommodation” (AMORPHEX THERAPEUTICS LLC, priority 2015, dated 2018).
# Entries after “also recorded” stand apart in the source; their conditions may differ.
# Assays:
# childhood myopia = conditions: 68 myopic children, oral dose of 400 mg
# myopia progression [1] = test system: myopia progression
# myopia progression [2] = test system: myopia progression; remark: listed apart in the source
# [3] = test system: muscarinic receptors of the pupil and ciliary body
smiles,measurement,setting,value
Cn1cnc2[nH]c(=O)[nH]c(=O)c21 [7-methylxanthine],eye elongation and myopia progression,childhood myopia,reduce eye elongation and myopia progression
same,safety / adverse effects,childhood myopia,safe and without side effects; also recorded: no reported adverse effects
CN1CCc2cccc3c2[C@H]1Cc1ccc(O)c(O)c1-3 [apomorphine],myopia progression in animal models,myopia progression [1],retard myopia progression
CN1[C@@H]2CC[C@H]1C[C@@H](OC(=O)C(CO)c1ccccc1)C2 (some centres unmarked) [atropine],glare symptoms,myopia progression [2]; 0.01% drops,some mild glare symptoms
same,"visual acuity, quality of life, reading speed",myopia progression [2]; 0.01% drops,"no decrease in visual acuity, quality of life or reading speed"
same,myopia progression,myopia progression [2]; eye drop concentrations of 0.5% and 1.0%,≤ 0.2 diopters/year
same,increase in pupil size easily tolerated by children,"myopia progression [2]; lower dose atropine drops, normal light conditions",1 mm
same,effect on myopia progression,"myopia progression [2]; lowest dose eye drops studied, 0.01%",less-than-optimal but measureable effect
same,duration of dilation after one drop,myopia progression [2]; one eye drop,several days or even a week or more
N[C@@H](Cc1ccc(O)c(O)c1)C(=O)O [levodopa],myopia progression in animal models,myopia progression [1],retard myopia progression
CN1CCN(CC(=O)N2c3ccccc3C(=O)Nc3cccnc32)CC1 [pirenzepine],activity at muscarinic receptors of the pupil and ciliary body relative to atropine,[3],less active at the muscarinic receptors of the pupil and ciliary body than atropine
